The subject of assay [1] is pSTAT1(2)-luciferase reporter in HeLa cells triggered with human OSM. The assay can be described thus: JAK-STAT signalling assay. To be noted: Homo sapiens, HeLa, HeLa cells, pSTAT1(2)-luciferase reporter, human OSM 33 ng/mL; read-out: JAK-STAT IC50. In kind it is cell-based. As for the experimental part:
JAK-STAT Signalling Assay
HeLa cells were maintained in Dulbecco's Modified Eagle's Medium (DMEM) containing 10% heat inactivated fetal calf serum, 100 U/mL penicillin and 100 μg/mL streptomycin. HeLa cells were used at 70% confluence for transfection. 20,000 cells in 87 μL cell culture medium were transiently transfected with 40 ng pSTAT1(2)-luciferase reporter (Panomics), 8 ng of LacZ reporter as internal control reporter and 52 ng of pBSK using 0.32 μL Jet-PEI (Polyplus) as transfection reagent per well in 96-well plate format. After overnight incubation at 37° C., 5% CO2, transfection medium was removed. 81 μL of DMEM+1.5% heat inactivated fetal calf serum was added. 9 μL compound at 10× concentration was added for 60 min and then 10 μL of human OSM (Peprotech) at 33 ng/mL final concentration.
After overnight incubation at 37° C., 5% CO2 cells were lysed by adding 100 μL lysis buffer/well (PBS, 0.9 mM CaCl2, 0.5 mM MgCl2, 10% Trehalose, 0.05% Tergitol NP9, 0.3% BSA).
40 μL of cell lysate was used to read β-galactosidase activity by adding 180 μL β-Gal solution (30 μL ONPG 4 mg/mL+150 μL β-Galactosidase buffer (0.06 M Na2HPO4, 0.04 M NaH2PO4, 1 mM MgCl2)) for 20 min.
Luciferase activity was measured using 40 μL cell lysate plus 40 μL of Steadylite as described by the manufacturer (Perkin Elmer), on the Envision (Perkin Elmer).
The positive and negative controls were used to calculate z′ and ‘percent inhibition’ (PIN) values.
Percentage inhibition=((fluorescence determined in the presence of vehicle−fluorescence determined for sample with test compound present)divided by(fluorescence determined in the presence of vehicle−fluorescence determined for sample without trigger))*100.
PIN values were plotted for compounds tested in dose-response and EC50 values were derived.
(In general: Reporter assays use an easily measured gene product as a stand-in for the process of interest.)

The target of a further assay is T1, human JAK3 (Homo sapiens, UniProt P52333).
T1 construct: catalytic domain (amino acids 781-1124; catalog number PV3855); purchased Invitrogen PV3855
T1 sequence (P52333 781-1124): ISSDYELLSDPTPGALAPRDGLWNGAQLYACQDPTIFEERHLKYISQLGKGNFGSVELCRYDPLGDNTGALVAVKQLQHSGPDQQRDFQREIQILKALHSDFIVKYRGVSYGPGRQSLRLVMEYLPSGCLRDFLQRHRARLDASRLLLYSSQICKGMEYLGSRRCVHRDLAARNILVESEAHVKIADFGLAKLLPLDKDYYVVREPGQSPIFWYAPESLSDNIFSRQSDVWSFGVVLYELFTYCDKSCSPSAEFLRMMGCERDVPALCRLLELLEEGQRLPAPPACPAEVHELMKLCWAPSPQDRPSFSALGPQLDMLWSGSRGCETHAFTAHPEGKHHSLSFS
The assay can be described thus: JAK3 inhibition assay. It counts as biochemical. Particulars: recombinant human JAK3 catalytic domain; polyGT substrate. The method, boiled down: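 Radiometric kinase assay: 0.5 ng JAK3 with 2.5 μg polyGT in Tris pH 7.5/MgCl2 buffer, 1 μM ATP plus 0.25 μCi 33P-γ-ATP, 1% DMSO, 45 min at 30 °C, stopped with phosphoric acid.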

A further assay concerns the target T2, human JAK1 (Homo sapiens, UniProt P23458).
T2 construct: catalytic domain, amino acids 866-1154; catalog number PV4774; purchased Invitrogen PV4774
The assay can be described thus: JAK1 inhibition assay (polyGT substrate / Ulight-JAK1 peptide). In kind it is biochemical. To be noted: recombinant human JAK1 catalytic domain; polyGT or Ulight-JAK1 peptide assay. The method in brief: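 Signal scaled between vehicle and 10 μM staurosporine. Radiometric polyGT reactions ran 45 min at 30 °C, counted after phosphoric-acid stop. Ulight peptide reactions ran 60 min at room temperature, fluorescence read after adding Eu-PT66 detection mix with EDTA.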

The target of another assay is T3, human TYK2 (Homo sapiens, UniProt P29597).
T3 construct: catalytic domain (amino acids 871-1187; catalog number 08-147); purchased Carna Biosciences 08-147
T3 sequence (P29597 871-1187): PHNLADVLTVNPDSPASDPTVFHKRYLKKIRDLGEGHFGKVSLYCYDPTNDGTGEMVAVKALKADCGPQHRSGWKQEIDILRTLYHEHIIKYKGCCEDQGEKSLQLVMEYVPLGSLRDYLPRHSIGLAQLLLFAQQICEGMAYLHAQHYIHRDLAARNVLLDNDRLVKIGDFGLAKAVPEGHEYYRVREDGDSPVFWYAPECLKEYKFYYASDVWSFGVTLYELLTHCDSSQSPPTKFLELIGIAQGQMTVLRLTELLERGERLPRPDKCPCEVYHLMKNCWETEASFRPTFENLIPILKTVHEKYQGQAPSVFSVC
The assay can be described thus: TYK2 inhibition assay. It counts as biochemical. Particulars: recombinant human TYK2 catalytic domain, polyGT substrate. The method, boiled down:
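Radiometric kinase reaction run 90 min at 30 °C, stopped with phosphoric acid, washed and scintillation-counted.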

The target of the next assay is T4, human JAK2 (Homo sapiens, UniProt O60674).
T4 construct: catalytic domain (amino acids 808-1132; catalog number PV4210); GST; purchased Invitrogen PV4210
T4 sequence (O60674 808-1132): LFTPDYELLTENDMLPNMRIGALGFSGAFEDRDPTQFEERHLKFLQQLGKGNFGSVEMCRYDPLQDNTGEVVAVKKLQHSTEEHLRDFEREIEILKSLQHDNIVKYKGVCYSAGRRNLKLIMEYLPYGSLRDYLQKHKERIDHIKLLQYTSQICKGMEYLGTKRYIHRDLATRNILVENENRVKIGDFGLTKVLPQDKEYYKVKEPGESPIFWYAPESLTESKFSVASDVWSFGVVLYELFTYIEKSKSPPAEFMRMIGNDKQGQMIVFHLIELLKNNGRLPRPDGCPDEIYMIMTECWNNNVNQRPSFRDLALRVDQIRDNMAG
The assay can be described thus: JAK2 inhibition assay (polyGT substrate / Ulight-JAK1 peptide). It counts as biochemical. To be noted: recombinant human JAK2 catalytic domain; polyGT or Ulight-JAK1 peptide assay. The method, boiled down:
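Two JAK2 formats: a ^33P-ATP polyGT assay (1 μM cold ATP, 90 min, 30° C., cpm read-out) and a Ulight-JAK1 peptide assay read by Europium-anti-phosphotyrosine fluorescence after 60 min at room temperature.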

T2 sequence (P23458 866-1154): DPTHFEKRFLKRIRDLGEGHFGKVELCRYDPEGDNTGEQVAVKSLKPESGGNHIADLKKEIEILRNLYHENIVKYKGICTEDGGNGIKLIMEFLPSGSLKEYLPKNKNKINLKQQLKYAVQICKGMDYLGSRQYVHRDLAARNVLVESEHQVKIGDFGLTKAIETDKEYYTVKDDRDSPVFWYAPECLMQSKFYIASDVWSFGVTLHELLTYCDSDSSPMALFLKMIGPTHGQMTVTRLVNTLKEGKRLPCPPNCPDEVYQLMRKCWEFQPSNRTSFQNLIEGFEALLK

A word on the IC50: it is the concentration needed to halve the response being measured. On to `CCc1cc(-c2nnc(N)s2)ccc1N(C)c1cc2c(cn1)ncn2C` [Compound 193, 5-(3-Ethyl-4-(methyl(1-methyl-1H-imidazo[4,5-c]pyridin-6-yl)amino)phenyl)-1,3,4-thiadiazol-2-amine], for which the IC50 in assay [1] is more than 1000 nM.

In the case of `CCc1cc(CNC(=O)OC(C)(C)C)ccc1N(C)c1cc2c(cn1)ncn2C` [Compound 252, tert-Butyl 3-ethyl-4-(methyl(1-methyl-1H-imidazo[4,5-c]pyridin-6-yl)amino)benzylcarbamate], the IC50 in assay [1] was more than 1000 nM.

With `CCc1cc(N2CCC(C#N)C2)ncc1N(C)c1cc2c(cn1)ncn2C` (stereo not drawn) [Compound 418, 1-{4-Ethyl-5-[methyl-(1-methyl-1H-imidazo[4,5-c]pyridin-6-yl)-amino]-pyridin-2-yl}-pyrrolidine-3-carbonitrile], the IC50 on human JAK3, on human JAK1, at human TYK2 and on human JAK2 was 0.01 to 100 nM throughout.

Regarding `Cc1ccc(N(C)c2cc3c(cn2)ncn3C)c(OC(F)F)c1` [Compound 427, (2-Difluoromethoxy-4-methyl-phenyl)-methyl-(1-methyl-1H-imidazo[4,5-c]pyridin-6-yl)-amine], the IC50 on human JAK3 is more than 1000 nM; at human JAK1, 0.01 to 100 nM; at human TYK2 it was more than 1000 nM; at human JAK2, 0.01 to 100 nM.

As for `CN(c1cc2c(cn1)ncn2C)c1ccc(C#N)cc1OC(F)F` [Compound 428, 3-Difluoromethoxy-4-[methyl-(1-methyl-1H-imidazo[4,5-c]pyridin-6-yl)-amino]-benzonitrile], the IC50 at human JAK3 was more than 1000 nM; at human JAK1, 101 to 500 nM; on human TYK2, more than 1000 nM; at human JAK2, more than 1000 nM.

Consider `CCc1ccccc1N(C)c1cc2c(cn1)ncn2C(F)F` [Compound 431, (1-Difluoromethyl-1H-imidazo[4,5-c]pyridin-6-yl)-(2-ethyl-phenyl)-methyl-amine], for which the IC50 was 101 to 500 nM on human JAK3, 101 to 500 nM at human JAK1, more than 1000 nM at human TYK2 and more than 1000 nM on human JAK2.

In the case of `CCc1cc(N2CC(N)C2)ncc1N(C)c1cc2c(cn1)ncn2C` [Compound 442, [6-(3-Amino-azetidin-1-yl)-4-ethyl-pyridin-3-yl]-methyl-(1-methyl-1H-imidazo[4,5-d]pyridin-6-yl)-amine], the IC50 on human JAK3 is more than 1000 nM; on human JAK1, 101 to 500 nM; on human TYK2, more than 1000 nM; on human JAK2, more than 1000 nM.

Consider `CCc1cc(N2CC(NS(C)(=O)=O)C2)ncc1N(C)c1cc2c(cn1)ncn2C` [Compound 443, N-(1-{4-Ethyl-5-[methyl-(1-methyl-1H-imidazo[4,5-c]pyridin-6-yl)-amino]-pyridin-2-yl}-azetidin-3-yl)-methAnesulfonamide], for which the IC50 at human JAK3 was in the range of 101 to 500 nM; on human JAK1, 0.01 to 100 nM; at human TYK2, 0.01 to 100 nM; at human JAK2, 0.01 to 100 nM.

With `CCc1cc(C(C#N)N2CCOCC2)ncc1N(C)c1cc2c(cn1)ncn2C` (stereo not drawn) [Compound 444, {4-Ethyl-5-[methyl-(1-methyl-1H-imidazo[4,5-c]pyridin-6-yl)-amino]-pyridin-2-yl}-morpholin-4-yl-acetonitrile], the IC50 is 101 to 500 nM on human JAK3, 0.01 to 100 nM on human JAK1, 0.01 to 100 nM on human TYK2 and 0.01 to 100 nM on human JAK2.

For the compound `CCC(=O)NC1CN(C(C#N)c2ccc(N(C)c3cc4c(cn3)ncn4C)c(CC)c2)C1` (stereo not drawn) [Compound 454, N-[1-(Cyano-{3-ethyl-4-[methyl-(1-methyl-1H-imidazo[4,5-c]pyridin-6-yl)-amino]-phenyl}-methyl)-azetidin-3-yl]-propionamide], the IC50 on human JAK3 is 101 to 500 nM; at human JAK1, 0.01 to 100 nM; at human TYK2 it was 0.01 to 100 nM; at human JAK2 it was 0.01 to 100 nM.

On to `CCc1cc(C(C#N)N2CC(NS(C)(=O)=O)C2)ccc1N(C)c1cc2c(cn1)ncn2C` (stereo not drawn) [Compound 455, N-[1-(Cyano-{3-ethyl-4-[methyl-(1-methyl-1H-imidazo[4,5-c]pyridin-6-yl)-amino]-phenyl}-methyl)-azetidin-3-yl]-methanesulfonamide], for which the IC50 on human JAK3, at human JAK1, on human TYK2 and at human JAK2 was 0.01 to 100 nM throughout.

With `CCc1ncncc1N(C)c1cc2c(cn1)ncn2C` [Compound 456, (4-Ethyl-pyrimidin-5-yl)-methyl-(1-methyl-1H-imidazo[4,5-c]pyridin-6-yl)-amine], the IC50 at human JAK3, at human JAK1, on human TYK2 and on human JAK2 was more than 1000 nM in each case.

Consider `CCc1nc(C2CN(C(=O)OC(C)(C)C)C2)cnc1N(C)c1cc2c(cn1)ncn2C` [Compound 457, 3-{6-Ethyl-5-[methyl-(1-methyl-1H-imidazo[4,5-c]pyridin-6-yl)-amino]-pyrazin-2-yl}-azetidine-1-carboxylic acid tert-butyl ester], for which the 50% inhibitory concentration (IC50) at human JAK3, at human JAK1, at human TYK2 and on human JAK2 was more than 1000 nM each time.

On to `CCc1cc(C2(C#N)CN(S(C)(=O)=O)C2)ncc1N(C)c1cc2c(cn1)ncn2C` [Compound 458, 3-{4-Ethyl-5-[methyl-(1-methyl-1H-imidazo[4,5-c]pyridin-6-yl)-amino]-pyridin-2-yl}-1-methanesulfonyl-azetidine-3-carbonitrile], for which the IC50 fell in the range of 501 to 1000 nM at human JAK3, 0.01 to 100 nM on human JAK1, 501 to 1000 nM at human TYK2 and 101 to 500 nM at human JAK2.

Take `CCc1ccccc1N(CCN1CCCC1)c1cc2c(cn1)ncn2C` [Compound 459, N-(2-ethylphenyl)-1-methyl-N-(2-(pyrrolidin-1-yl)ethyl)-1H-imidazo[4,5-c]pyridin-6-amine]: the IC50 is more than 1000 nM on human JAK3, 101 to 500 nM at human JAK1, more than 1000 nM on human TYK2 and more than 1000 nM at human JAK2.

`CCc1ccccc1N(CCN1CCOCC1)c1cc2c(cn1)ncn2C` [Compound 460, N-(2-ethylphenyl)-1-methyl-N-(2-morpholinoethyl)-1H-imidazo[4,5-c]pyridin-6-amine]: the IC50 on human JAK3 is more than 1000 nM; at human JAK1, 101 to 500 nM; on human TYK2 it was more than 1000 nM; at human JAK2, more than 1000 nM.

`CCc1ccccc1N(Cc1ccccn1)c1cc2c(cn1)ncn2C` [Compound 461, N-(2-ethylphenyl)-1-methyl-N-(pyridin-2-ylmethyl)-1H-imidazo[4,5-c]pyridin-6-amine]: the IC50 at human JAK3, at human JAK1, at human TYK2 and on human JAK2 was more than 1000 nM in each case.

With `CCc1ccccc1N(Cc1cccnc1)c1cc2c(cn1)ncn2C` [Compound 462, N-(2-ethylphenyl)-1-methyl-N-(pyridin-3-ylmethyl)-1H-imidazo[4,5-c]pyridin-6-amine], the IC50 was more than 1000 nM on human JAK3, 501 to 1000 nM at human JAK1, more than 1000 nM at human TYK2 and more than 1000 nM on human JAK2.

For the origin of these results see patent US20130217664A1, “NOVEL COMPOUNDS USEFUL FOR THE TREATMENT OF DEGENERATIVE AND INFLAMMATORY DISEASES” (priority 2012, published 2013).
